Data taken from US7812117B2, “Vasostatin as marrow protectant” (The United States of America as represented by the …, priority 1998, dated 2010).

Experiments:
murine bone marrow cells [1] = assay: Murine bone marrow cell proliferation in vitro ([3H] thymidine incorporation); conditions: cisplatinum 25 μM, regardless the addition of vaso
murine bone marrow cells [2] = conditions: C57BL/6NCR, mouse, 77 nM

N.N.[Cl][Pt][Cl] [Cisplatinum, cis-diammine-dichloroplatinum II, reference compound]
bone marrow cell proliferation induced by IL-3 at the highest dose of cisplatinum (murine bone marrow cells [1]): minimal

COc1cc([C@@H]2c3cc4c(cc3[C@@H](O[C@@H]3O[C@@H]5CO[C@@H](C)O[C@H]5[C@H](O)[C@H]3O)[C@H]3COC(=O)[C@H]23)OCO4)cc(OC)c1O [Etoposide, reference compound]
reduction of bone marrow cell proliferation (murine bone marrow cells [2]): 1.5-2.7 fold
